# Test results as given in US20220143210A1, “HYDROGEL COMPOSITIONS AND METHODS FOR TREATEMENT OF MALIGNANCIES” (Fred Hutchinson Cancer Research Center, priority 2019, published 2022).
# Entries after “also recorded” stand apart in the source; their conditions may differ.
# What was measured:
# [1] = tested on: GFP+ PDX brain tumor cells (HGG); assay: In vitro chemotaxis (transwell, Incucyte) assay; type: cell-based, human; conditions: for chemotaxis / migration of PDX brain tumor cells: chemokine gradient, transwell
# Protocol: Cell migration assays were performed using the Chemotaxis software on Essen Bio's Incucyte Zoom 2016 and S3. Specialized 96 well transwell plates were supplied by Essen Bio. GFP+ PDX cells were cultured in the aforementioned Neuralcult media without EGF/FGF supplementation. The Incucyte software definitions were trained to identify GFP+ rounded objects spanning the range of healthy nuclei found in my cultures.
# It has been hypothesized that it is possible to exploit the migratory behavior of high grade brain tumors by employing chemokine gradients to attract them out of inoperable locations and into a location within the brain that maximizes their exposure to opsonin and macrophages. […] Flow analysis confirms the expression of the requisite chemokine receptors on the HGG line used in our chemotaxis assay, as shown in FIGS. 2A-2C.
# [2] = tested on: GFP+ HGG cells in a 1:1 co-culture with murine macrophages; type: cell-based, human PDX tumor cells, murine macrophages (C57/B6 mouse); conditions: single agent; macrophage species not specified
# Protocol: All chemokines were purchased from Sigma-Aldrich. LEAF hCD47 mAb was purchased from eBioscience (cat number, B6H12 clone). Primary murine macrophages were derived from bone marrow of a C57/B6 mouse. Bone marrow derived mononuclear progenitors were cultured in RPMI with CSF-1 for 3 days before freezing/use in assays. Patient-derived xenograft (PDX) were obtained from autopsy or biopsy. PDX lines were cultured in Neuralcult Serum Free (Stem cell tech) with Neuralcult supplement (cat no), 100 U ml-1 PenStrep, Glutamax, EGF and FGF. Cells were grown adherent on tissue-culture treated plates after at least 2 hours of Laminin coating (Sigma-aldrich) in an incubator at 37° C. in 5% CO2. All PDX lines were transduced with H2b-GFP and Luciferase to assist in cell counting and tumor size visualization via IVIS. Xenograft tumors were established in the cortex of female athymic mice nu/nu (Harlan) mice. Tumors were allowed to grow to an IVIS threshold before study enrollment. All mouse studies were carried out following protocols approved by the IACUC at FHCRC (protocol 1457) and complied with all relevant ethical regulations.
# Phagocytosis assays were performed using the Basic Analyzer software on Essen Bio's Incucyte Zoom 2016 and S3. […] Using the aforementioned definitions, the Incucyte calculated the reduction of GFP+ nuclei in the wells over time in response to those factors. […]
# [3] = administered intravenously, clinically; cited from earlier work
Molecule,chemotaxis / migration of PDX brain tumor cells [1],effects on the tumor cells in co-culture [2],also measured
"CXCL8: classical immune cell chemokine, purchased from Sigma-Aldrich",induced varying degrees of chemotaxis; also recorded: effective at eliciting migration,,
"CCL2: classical immune cell chemokine, purchased from Sigma-Aldrich",induced varying degrees of chemotaxis; also recorded: effective at eliciting chemotaxis; also recorded: effective at eliciting migration,,relative chemotactic potency across PDX lines ([1]; across all lines tested): most potency across all lines tested
IFNg: M1-polarizing agent,,mild effects,
"CCOCc1nc2c(N)nc3ccccc3c2n1CC(C)(C)O [R848, reference compound]",,mild effects,
"CXCL12: classical immune cell chemokine, purchased from Sigma-Aldrich",induced varying degrees of chemotaxis; also recorded: effective at eliciting migration,,
"IFNg: M1-polarizing agent (protein, UniProt P01579 24-161, looked up) Interferon gamma: QDPYVKEAENLKKYFNAGHSDVADNGTLFLGILKNWKEESDRKIMQSQIVSFYFKLFKNFKDDQSIQKSVETIKEDMNVKFFNSNKKKRDDFEKLTNYSVTDLNVQRKAIHELIQVMAELSPAAKTGKRKRSQMLFRG",,,systemic toxicity [3]: dramatic systemic toxicity
